One series concerns melanoma cell line A375. Description: Cytotoxicity in cancer cell lines (CellTiter-Glo), A375. As to conditions: A375 cells, mean of three tests.
For series [1], the system named is human pancreatic carcinoma cell line PL-45. Kind of series: Cytotoxicity in cancer cell lines (CellTiter-Glo), PL-45. As to conditions: PL45, 48 h, read-out: Cytotoxicity EC50 at 48 hours, PL-45. Background: ATP-based viability assays read luminescence as a measure of living cells.
Description: (§2) The cytotoxicity of test compounds was determined for several cell lines including melanoma cell line RPMI-7951, melanoma cell line Sk-Mel-28, melanoma cell line A375, melanoma cell line U87, glioblastoma cell line U87, immortalized human T lymphocyte Jurkat cells, and human pancreatic carcinoma cell line PL-45.
(§3) All cells were obtained from ATCC. RPMI, DMEM, EMEM and pen/strep were obtained from Invitrogen. Normocin® was obtained from InvivoGen. FBS was obtained from Gibco. Cell viability reagent Cell-titer glow was obtained from Promega.
(§4) The growth media for A375 and PL45 cells was DMEM supplemented with antibiotic/anti-mycotic pen/strep and Normocin® (InvivoGen) and 10% FBS.
(§5) Ten (10) mM solutions of each of the test compounds were prepared in dimethyl sulfoxide (DMSO) and serially diluted in DMSO to provide solutions having concentrations of the test compound of 3 mM, 1 mM, 0.3 mM, 0.1 mM, 0.03 mM, or 0.01 mM. Forty (40) μL of each of the solutions were further diluted to 400 μL in the cell specific complete media to provide 10× stock solutions having a 1 mM, 300 μM, 100 μM, 30 μM, 10 μM, 3 μM, 1 μM, or 0.3 μM of the test compound. Ten (10) μL of DMSO was diluted to 400 μL in the complete media and used as the 0 μM control.
(§6) For the cytotoxicity studies, all cells were grown in their respective complete media. Confluent cells were harvested and plated into two 96-well tissue culture treated plates at 5,000-8,000 cells/wells in 180 μL media. Twenty (20) μL of each of the 10× stock solutions were added to the wells and mixed.
(§7) After incubating for 24 h, media was aspirated out and replaced with 180 μL/well of the fresh media and 20 μL/well of the 10× stock solutions in duplicate wells in duplicate plates (Plates 1 and 2; and 3 and 4) and in quadruplicate wells (Plate 5) were added, mixed and cultured for 48 hours. The final concentrations of each test compound were 100 μM, 30 μM, 10 μM, 3 μM, 1 μM, 0.3 μM, 0.1 μM and 0 μM.
(§8) After 48 hours and/or 72 hours following addition of the test compounds, one plate each was removed from the incubator, the media aspirated out, 100 μL of CellTiter-Glo® reagent added to each well, and the resulting luminescent signals measured using a VICTOR-2® plate reader.
(§9) The data from the plate reader were exported to GraphPad (Prism) and data processed using non-linear regression and EC50 value determined.
Series [2] in a line: Cytotoxicity in primary cells (CellTiter-Glo), PBMC. The series is classed as cell-based. As to conditions: mean of three tests. An excerpt: (§1) All cells were obtained from ATCC. […] Normocin® was obtained from InvivoGen. FBS was obtained from Gibco. […] All test compounds were synthesized as described herein.
In series [3] the test system is glioblastoma cell line U87. Description: Cytotoxicity in cancer cell lines (CellTiter-Glo), U87. The series is classed as cell-based. Conditions: Homo sapiens, U-87 MG, U87 cells, mean of three tests.
Description: as §1

Series [4] concerns melanoma cell line Sk-Mel-28. Kind of series: Cytotoxicity in cancer cell lines (CellTiter-Glo), Sk-Mel-28. The series is classed as cell-based. As to conditions: Homo sapiens, Sk-Mel-28 cells, mean of three tests.
Description: as §1

Series [5] concerns immortalized human T lymphocyte Jurkat cells. Kind of series: Cytotoxicity in cancer cell lines (CellTiter-Glo), Jurkat. Format: cell-based. As to conditions: Jurkat cells, mean of three tests.
Description: as §1

For series [6], the system named is melanoma cell line RPMI-7951. Description: Cytotoxicity in cancer cell lines (CellTiter-Glo), RPMI-7951. Format: cell-based. As to conditions: Homo sapiens.
Description: as §1

The mark [7] stands for this setting: Homo sapiens, A-375, 48 h, read-out: Cytotoxicity EC50 at 48 hours, A375, 48 h.
[8] abbreviates: read-out: Cytotoxicity EC50 at 48 hours, A375, 48 h.
Setting [9] is: 48 h, read-out: Cytotoxicity EC50 at 48 hours, U87.
Where [10] appears, read: 72 h, read-out: Cytotoxicity EC50 at 72 hours, U87.
[11] abbreviates: Homo sapiens, A-375, 72 h, read-out: Cytotoxicity EC50 at 72 hours, A375, 72 h.
Where [12] appears, read: SK-MEL-28, 48 h, 48 h, read-out: Cytotoxicity EC50 at 48 hours, Sk mel.
The mark [13] stands for this setting: SK-MEL-28, 72 h, 72 h, read-out: Cytotoxicity EC50 at 72 hours, Sk mel.
[14] abbreviates: 48 h, read-out: Cytotoxicity EC50 at 48 hours, Jurkat.
The mark [15] stands for this setting: 72 h, read-out: Cytotoxicity EC50 at 72 hours, Jurkat.
The mark [16] stands for this setting: RPMI-7951, 48 h, read-out: Cytotoxicity EC50 at 48 hours, RPMI.
Setting [17] is: RPMI-7951, 72 h, read-out: Cytotoxicity EC50 at 72 hours, RPMI.

Like-named read-outs stand apart in the source and are kept apart here. A value given as a limit tells only on which side of the number the result lay.

Description for melanoma cell line A375: as §2, §3, §4, §5, §6, §7, §8, §9

As to `O=S1(=O)C=CC(OS(=O)(=O)c2cccc(C3CCCCC3)c2)C1` (stereo not drawn) [(35), 1,1-dioxido-2,3-dihydrothiophen-3-yl 3-cyclohexylbenzenesulfonate], the EC50 worked out at 1000 nM with melanoma cell line A375 (setting [7]) and 1200 nM in series [1].

Turning to `O=C(OC1C=CS(=O)(=O)C1)c1ccc(Oc2ccccc2)cc1` (stereo not drawn) [(23), 1,1-Dioxido-2,3-dihydrothiophen-3-yl 4-phenoxybenzoate], the EC50 stood at 23000 nM with melanoma cell line A375 (setting [7]) and 8300 nM in series [1].

`CC(C)Nc1cc(-c2c[nH]c(C(=O)N[C@H](CO)c3cccc(Cl)c3)c2)c(Cl)cn1` [Ulixertinib, ulixertinib, reference compound]: in series [2], a half-maximal response (EC50 at 48 h) required 31000 nM. Moreover, the EC50 with melanoma cell line A375 (setting [7]) is 600 nM; in series [1], 14000 nM.

With `O=S1(=O)C=CC(OS(=O)(=O)c2ccc(C3CCCCC3)cc2)C1` (stereo not drawn) [(34), 1,1-dioxido-2,3-dihydrothiophen-3-yl 4-cyclohexylbenzenesulfonate], the EC50 amounted to 1500 nM with melanoma cell line A375 (setting [7]) and 900 nM in series [1].

`O=S1(=O)C=CC(OS(=O)(=O)c2ccc(C(O)c3ccccc3)cc2)C1` (stereo not drawn) [(39), 1,1-dioxido-2,3-dihydrothiophen-3-yl 4-(hydroxy(phenyl)methyl)benzenesulfonate]: the EC50 in the series on melanoma cell line A375 (setting [7]) stood at 1300 nM; in series [1], 1500 nM.

`O=S1(=O)C=CC(OS(=O)(=O)c2ccc(-c3ccccc3)cc2)C1` (stereo not drawn) [(33), 1,1-dioxido-2,3-dihydrothiophen-3-yl [1,1′-biphenyl]-4-sulfonate]: the EC50 with melanoma cell line A375 (setting [8]) turned out to be 1000 nM; in series [1] it was 2300 nM.

Turning to `O=S1(=O)C=CC(OS(=O)(=O)c2ccc(-c3ccccc3)cc2)C1` (stereo not drawn) [(17), 1,1-dioxido-2,3-dihydrothiophen-3-yl [1,1′-biphenyl]-4-sulfonate], the EC50 in series [3] (setting [9]) was determined as 2000 nM; in series [3] (setting [10]), 900 nM; with melanoma cell line A375 (setting [11]), 10000 nM; with melanoma cell line A375 (setting [8]), 2600 nM; in series [4] (setting [12]), 3200 nM; in series [4] (setting [13]) it was 800 nM. Besides, the 50% effective concentration (EC50) in series [5] (setting [14]) worked out at 9 µM; in series [5] (setting [15]), 2 µM; in series [6] (setting [16]), 1000 nM; in series [6] (setting [17]), 400 nM. The compound further had an EC50 at 48 h in series [2] of 500 nM. For the same compound, the EC50 at 72 h in series [2] is 500 nM.

In the case of `O=S1(=O)C=CC(OS(=O)(=O)c2ccc(Sc3ccccc3)cc2)C1` (stereo not drawn) [(44), 1,1-dioxido-2,3-dihydrothiophen-3-yl 4-(phenylthio)benzenesulfonate], the EC50 stood at 3210 nM in the series with melanoma cell line A375 (setting [7]) and 800 nM in series [1].

With `O=S1(=O)C=CC(OS(=O)(=O)c2cccc(OC3CCCCC3)c2)C1` (stereo not drawn) [(37), 1,1-dioxido-2,3-dihydrothiophen-3-yl 3-(cyclohexyloxy)benzenesulfonate], the results for the EC50 (in the series with melanoma cell line A375 (setting [7]); in series [1]) were 2800 nM and 1600 nM, respectively.

As to `O=C(c1ccccc1)c1ccc(S(=O)(=O)OC2C=CS(=O)(=O)C2)cc1` (stereo not drawn) [(38), 1,1-dioxido-2,3-dihydrothiophen-3-yl 4-benzoylbenzenesulfonate], the values for the EC50 (in the series on melanoma cell line A375 (setting [7]); in series [1]) were 200 nM and 500 nM, respectively.

For the compound `O=S1(=O)C=CC(OS(=O)(=O)c2cccc(-c3ccccc3)c2)C1` (stereo not drawn) [(26), 1,1-dioxido-2,3-dihydrothiophen-3-yl [1,1′-biphenyl]-3-sulfonate], the EC50 was 7000 nM in the series on melanoma cell line A375 (setting [7]) and 1000 nM in series [1].

Turning to `O=S1(=O)C=CC(OS(=O)(=O)c2cccc(Oc3ccccc3)c2)C1` (stereo not drawn) [(25), 1,1-dioxido-2,3-dihydrothiophen-3-yl 3-phenoxybenzenesulfonate], the EC50 with melanoma cell line A375 (setting [7]) is 6000 nM; in series [1], 900 nM.

With `COc1cc(Oc2ccccc2)ccc1S(=O)(=O)OC1C=CS(=O)(=O)C1` (stereo not drawn) [(41), 1,1-dioxido-2,3-dihydrothiophen-3-yl 2-methoxy-4-phenoxybenzenesulfonate], the EC50 was determined as 600 nM with melanoma cell line A375 (setting [7]) and 500 nM in series [1].

As to `O=S1(=O)C=CC(OS(=O)(=O)c2ccc(Oc3ccccc3)cc2)C1` (stereo not drawn) [(18), 1,1-dioxido-2,3-dihydrothiophen-3-yl 4-phenoxybenzenesulfonate], the EC50 in series [3] (setting [9]) came to 1000 nM; with melanoma cell line A375 (setting [7]), 2000 nM; in series [4] (setting [12]), 2000 nM; in series [4] (setting [13]), 3000 nM. The compound also showed an EC50 at 48 h in series [2] of 200 nM. In series [2], this compound yielded an EC50 at 72 h of 21000 nM.

Consider `O=S1(=O)C=CC(OS(=O)(=O)c2ccc(S(=O)(=O)c3ccccc3)cc2)C1` (stereo not drawn) [(45), 1,1-dioxido-2,3-dihydrothiophen-3-yl 4-(phenylsulfonyl)benzenesulfonate], for which the EC50 in the series on melanoma cell line A375 (setting [7]) was 25000 nM; in series [1], 2400 nM.

On to `O=S1(=O)C=CC(OS(=O)(=O)c2ccc3ccccc3c2)C1` (stereo not drawn) [(1), 1,1-dioxido-2,3-dihydrothiophen-3-yl naphthalene-2-sulfonate], for which the EC50 was 1000 nM in series [3] (setting [9]); 4000 nM in series [3] (setting [10]); 4000 nM with melanoma cell line A375 (setting [7]); 800 nM in the series on melanoma cell line A375 (setting [11]); 4000 nM in series [4] (setting [12]); 300 nM in series [4] (setting [13]). The EC50 in series [1] worked out at 2100 nM; in series [5] (setting [14]), 3 µM; in series [5] (setting [15]), 5 µM; in series [6] (setting [16]) it was 1000 nM; in series [6] (setting [17]) it was 4000 nM. The midpoint of the response in series [2], the EC50 at 48 h, lay at 400 nM. The same compound displayed an EC50 at 72 h in series [2] of 400 nM.

For `O=S1(=O)C=CC(OS(=O)(=O)c2ccc(Cc3ccccc3)cc2)C1` (stereo not drawn) [(28), 1,1-dioxido-2,3-dihydrothiophen-3-yl 4-benzylbenzenesulfonate], the EC50 in the series with melanoma cell line A375 (setting [7]) was determined as 14000 nM; in series [1], 900 nM.

Regarding `O=C(OC1C=CS(=O)(=O)C1)c1ccc(-c2ccccc2)cc1` (stereo not drawn) [(24), 1,1-dioxido-2,3-dihydrothiophen-3-yl [1,1′-biphenyl]-4-carboxylate], the EC50 in the series with melanoma cell line A375 (setting [7]) is more than 100000 nM; in series [1], 49000 nM.

As for `O=S1(=O)C=CC(OS(=O)(=O)c2ccc(COc3ccccc3)cc2)C1` (stereo not drawn) [(29), 1,1-dioxido-2,3-dihydrothiophen-3-yl 4-(phenoxymethyl)benzenesulfonate], the EC50 was determined as 10000 nM in the series on melanoma cell line A375 (setting [7]) and 1000 nM in series [1].

On to `COc1cc(S(=O)(=O)OC2C=CS(=O)(=O)C2)ccc1Oc1ccccc1` (stereo not drawn) [(43), 1,1-dioxido-2,3-dihydrothiophen-3-yl 3-methoxy-4-phenoxybenzenesulfonate], for which the EC50 with melanoma cell line A375 (setting [7]) stood at 3120 nM; in series [1] it was 610 nM.

On to `Cc1cc(S(=O)(=O)OC2C=CS(=O)(=O)C2)ccc1Oc1ccccc1` (stereo not drawn) [(42)], for which the figures for the EC50 (in the series on melanoma cell line A375 (setting [7]); in series [1]) were 500 nM and 1200 nM, respectively.

Regarding `COS(=O)(=O)c1ccc2ccccc2c1` [(30), methyl naphthalene-2-sulfonate], the EC50 with melanoma cell line A375 (setting [7]) is more than 100000 nM; in series [1], 8800 nM.

Consider `Cc1cc(Oc2ccccc2)ccc1S(=O)(=O)OC1C=CS(=O)(=O)C1` (stereo not drawn) [(40), 1,1-dioxido-2,3-dihydrothiophen-3-yl 2-methyl-4-phenoxybenzenesulfonate], for which the values for the EC50 (in the series with melanoma cell line A375 (setting [7]); in series [1]) were 300 nM and 200 nM, respectively.

Broadly, the EC50 is the midpoint of the concentration-response curve.

The record behind these values is patent US12595243B2, “Modulators of extracellular signal-regulated kinase” (GEN1E LIFESCIENCES INC., priority 2023, dated 2026).
